Data on 3 compounds can be found in patent US12466817B2, “Pyridine derivative and application thereof” (Nicoya Therapeutics (Shanghai) Co., Ltd, priority 2020, dated 2025).

A word on the IC50: it is the midpoint of a concentration-inhibition curve. The term half-life denotes how long it takes for the measured level to halve. A word on the clearance: it is the volume of plasma or blood freed of the substance per unit of time. For orientation: bioavailability means dose-corrected exposure relative to a reference, in per cent. A higher bioavailability goes with good availability.

A value given as a limit tells only on which side of the number the result lay.

The target in one data set is T1, CCR2 (Homo sapiens, UniProt P41597).
T1 construct: expressed in transfected cells; host or cells: HEK293, clone C7, passage P6
T1 sequence (P41597 whole entry, species assumed): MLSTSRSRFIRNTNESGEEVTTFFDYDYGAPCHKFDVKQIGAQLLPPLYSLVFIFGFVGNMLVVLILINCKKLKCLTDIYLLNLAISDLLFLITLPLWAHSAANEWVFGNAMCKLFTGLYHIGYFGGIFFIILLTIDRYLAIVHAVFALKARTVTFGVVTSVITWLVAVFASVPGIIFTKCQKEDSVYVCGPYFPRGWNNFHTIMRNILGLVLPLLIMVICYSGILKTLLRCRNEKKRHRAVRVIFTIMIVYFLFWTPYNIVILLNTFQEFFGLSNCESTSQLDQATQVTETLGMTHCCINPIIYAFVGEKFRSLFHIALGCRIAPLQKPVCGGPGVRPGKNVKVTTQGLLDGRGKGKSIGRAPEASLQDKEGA
Kind of data set: CCR2 FLIPR Calcium assay (intracellular calcium signaling). The note with it: HEK293 host cells, clone C7; agonist MCP-1; Fluo-4 calcium signal. In kind it is cell-based. Here is the method: (§1) The inhibitory effects of the compounds on CCR2 and CCR5 receptors were evaluated by detecting intracellular calcium signaling changes by FLIPR Calcium assay, using the IC50 values of the compounds as indicators.
(§2) 1. Cell lines: The cells were seeded and incubated overnight at 37° C. in a 5% CO2 incubator CCR2/CCR5 density: 1 M (20 k/well)
(§3) 2. Reagent: Fluo-4 Direct, (Invitrogen, Cat #F10471)
(§4) The compound was prepared by dissolving in DMSO to a 10 mM solution, and the compound solution was placed in a nitrogen chamber.
(§5) Preparation of probenecid in FLIPR assay buffer: 1 mL of FLIPR assay buffer was added to 77 mg of probenecid to make a 250 mM solution. The solution was prepared every day to keep fresh.
(§6) 2× (8 μM) Fluo-4 Direct™ loading buffer (10 mL of each)
(§7) 0.2 mL of probenecid was added to each 10 mL of Fluo-Direct. The final measured concentration was 2.5 mM MCP-1 was diluted in FLIPR assay buffer 1:2 for 10 spots, starting at 0.5 μM (eventually to […]). RANTES was diluted in FLIPR assay buffer 1:3 for 10 spots, starting at 0.5 μM (eventually to […]). 20 μL of serially diluted compound buffer was added to each well of the DRC plate.
(§8) The standard compound was diluted in DMSO 1:3 for 11 points, starting at 1 mM.
(§9) The test compound was diluted in DMSO 1:3 for 11 spots, starting at 2 mM. 250 nL of compound solution was transferred to cell plates using Echo (Greiner #781946) c) The cell plate was taken from the incubator and 20 μL of 2× Fluo-4 Direct no wash loading buffer was gently dispensed into a 384-well cell culture plate using a pipette. The volume in the final cell plate was 40 μL […]
(§10) d) Incubation was conducted at 37° C. 5% CO2 for 50 minutes, at room temperature for 10 minutes e) The cell plate was taken from the incubator and placed in the FLIPR. The composite plate and pipette tip box were placed in the FLIPR
(§11) 5) The “Max-Min” was calculated from Read 90 to the maximum allowed. EC80 values for each cell line were calculated using FLIPR
(§12) 6) Agonist reference compound at 5 times EC80 concentration was prepared 2) 10 μL of agonist reference compound at 5 times EC80 concentration was transferred from the composite plate to the cell plate.
(§13) 3) Fluorescence signals were read.
(§14) 4) The “Max-Min” was calculated from Read 90 to the maximum allowed h) Data was analyzed by using Prism, the IC50 values of the compounds were calculated.
Background: Calcium flux is commonly read through the fluorescence of an indicator in the cells.

A further data set deals with T2, CCR5 (Homo sapiens, UniProt P51681).
T2 construct: expressed in transfected cells; host or cells: HEK293, clone C13, passage P4
T2 sequence (P51681 whole entry, species assumed): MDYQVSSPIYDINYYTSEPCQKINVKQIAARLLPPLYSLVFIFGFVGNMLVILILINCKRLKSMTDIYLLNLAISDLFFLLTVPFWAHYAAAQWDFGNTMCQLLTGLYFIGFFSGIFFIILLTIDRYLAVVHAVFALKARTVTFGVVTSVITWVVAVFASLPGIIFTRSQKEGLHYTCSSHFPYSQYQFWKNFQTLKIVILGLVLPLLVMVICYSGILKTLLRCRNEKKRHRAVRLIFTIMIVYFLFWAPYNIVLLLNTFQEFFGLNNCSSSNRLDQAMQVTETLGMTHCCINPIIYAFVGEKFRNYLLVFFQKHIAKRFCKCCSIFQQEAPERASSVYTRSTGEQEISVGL
Kind of data set: CCR5 FLIPR Calcium assay (intracellular calcium signaling). In kind it is cell-based. The note with it: HEK293 host cells, clone C13; agonist RANTES; Fluo-4 calcium signal. As to the method: as §1, §2, §3, §4, §5, §6, §7, §8, §9, §10, §11, §12, §13, §14

The target in another data set is T3, CYP1A2 (Homo sapiens, UniProt P05177).
T3 construct: from tissue; host or cells: human liver microsomes
T3 sequence (P05177 1-516): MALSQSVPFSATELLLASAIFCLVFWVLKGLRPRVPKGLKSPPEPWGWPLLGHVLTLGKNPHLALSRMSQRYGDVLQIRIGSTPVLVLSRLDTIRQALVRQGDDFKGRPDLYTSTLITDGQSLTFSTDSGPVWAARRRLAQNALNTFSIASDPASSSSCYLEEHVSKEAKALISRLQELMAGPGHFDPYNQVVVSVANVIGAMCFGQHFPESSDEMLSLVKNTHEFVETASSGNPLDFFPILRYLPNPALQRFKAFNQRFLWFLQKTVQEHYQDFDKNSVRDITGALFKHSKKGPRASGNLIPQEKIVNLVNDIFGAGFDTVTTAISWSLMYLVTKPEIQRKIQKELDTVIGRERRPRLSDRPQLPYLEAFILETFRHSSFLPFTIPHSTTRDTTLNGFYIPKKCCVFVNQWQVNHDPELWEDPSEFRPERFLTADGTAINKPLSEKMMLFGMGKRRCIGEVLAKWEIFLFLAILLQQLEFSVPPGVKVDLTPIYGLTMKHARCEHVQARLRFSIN
Kind of data set: Inhibition of human liver microsomal CYP1A2 activity. In kind it is in vitro ADME. The note with it: human liver microsomes, probe substrate phenacetin, NADPH. As to the method: (§15) A total of five specific probe substrates for the five isozymes of CYP, phenacetin (CYP1A2), diclofenac (CYP2C9), (S′)-mephenytoin (CYP2C19), dextromethorphan ([…]), and midazolam (CYP3A4), were incubated respectively with human liver microsomes and the test compounds, and the reaction was initiated by the addition of reduced nicotinamide adenine dinucleotide phosphate (NADPH), and the samples were treated and the concentrations of the five metabolites produced by the specific substrates, acetaminophen, 4′-hydroxydiclofenac, 4′-hydroxymephenytoin, dextrorphan and 1′-hydroxymidazolam were measured by liquid chromatography tandem mass spectrometry (LC-MS/MS) after the end of the reaction, and the corresponding half maximal inhibitory concentrations (IC50) were calculated.

In the next data set the target is T4, CYP2C9 (Homo sapiens, UniProt P11712).
T4 construct: from tissue; host or cells: human liver microsomes
T4 sequence (P11712 whole entry): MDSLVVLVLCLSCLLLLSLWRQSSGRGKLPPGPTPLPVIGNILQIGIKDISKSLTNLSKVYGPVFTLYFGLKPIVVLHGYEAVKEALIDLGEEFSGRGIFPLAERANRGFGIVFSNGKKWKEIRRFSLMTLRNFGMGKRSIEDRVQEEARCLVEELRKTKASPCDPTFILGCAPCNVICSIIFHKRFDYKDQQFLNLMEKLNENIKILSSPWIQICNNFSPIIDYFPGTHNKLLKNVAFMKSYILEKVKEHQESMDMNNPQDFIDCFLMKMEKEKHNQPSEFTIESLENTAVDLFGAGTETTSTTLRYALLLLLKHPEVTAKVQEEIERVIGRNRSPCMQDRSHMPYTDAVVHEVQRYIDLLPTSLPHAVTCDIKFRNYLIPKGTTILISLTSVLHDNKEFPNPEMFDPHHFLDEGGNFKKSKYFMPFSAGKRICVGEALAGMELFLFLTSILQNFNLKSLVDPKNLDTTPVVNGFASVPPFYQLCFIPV
Kind of data set: Inhibition of human liver microsomal CYP2C9 activity. In kind it is in vitro ADME. The settings on record: human liver microsomes, probe substrate diclofenac, NADPH. As to the method:
as §15
(Liver microsomes are a subcellular fraction often used to study metabolism.)

The next data set has as its target T5, CYP2C19 (Homo sapiens, UniProt P33261).
T5 construct: from tissue; host or cells: human liver microsomes
Kind of data set: Inhibition of human liver microsomal CYP2C19 activity. The settings on record: human liver microsomes, probe substrate (S)-mephenytoin, NADPH. It is filed as in vitro ADME. As to the method: as §15

The next data set addresses T6, CYP2D6 (Homo sapiens, UniProt P10635).
T6 construct: from tissue; host or cells: human liver microsomes
Kind of data set: Inhibition of human liver microsomal CYP2D6 activity. In kind it is in vitro ADME. The settings on record: human liver microsomes, probe substrate dextromethorphan, NADPH. Here is the method: as §15

In another data set the target is T7, CYP3A4 (Homo sapiens, UniProt P08684).
T7 construct: from tissue; host or cells: human liver microsomes
T7 sequence (P08684 whole entry): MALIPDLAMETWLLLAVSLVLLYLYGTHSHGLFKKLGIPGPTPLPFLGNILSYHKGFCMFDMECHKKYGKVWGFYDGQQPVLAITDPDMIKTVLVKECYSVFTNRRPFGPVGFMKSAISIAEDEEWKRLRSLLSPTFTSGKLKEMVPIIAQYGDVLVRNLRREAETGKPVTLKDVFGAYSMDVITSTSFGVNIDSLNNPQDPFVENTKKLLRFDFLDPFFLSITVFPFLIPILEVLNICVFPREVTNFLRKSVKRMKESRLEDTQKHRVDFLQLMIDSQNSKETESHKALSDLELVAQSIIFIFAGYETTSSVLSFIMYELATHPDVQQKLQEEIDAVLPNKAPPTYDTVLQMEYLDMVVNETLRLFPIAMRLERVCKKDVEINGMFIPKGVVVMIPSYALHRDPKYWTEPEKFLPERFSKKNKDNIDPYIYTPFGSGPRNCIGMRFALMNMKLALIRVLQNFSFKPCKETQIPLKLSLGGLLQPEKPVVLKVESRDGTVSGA
Kind of data set: Inhibition of human liver microsomal CYP3A4 activity. In kind it is in vitro ADME. The settings on record: human liver microsomes, probe substrate midazolam, NADPH. As to the method:
as §15

Data set [1] concerns human liver microsomal cytochrome P450 isozymes (CYP1A2, CYP2B6, CYP2C8, CYP2C9, CYP2C19, CYP2D6 and CYP3A4). Kind of data set: Inhibition of human liver microsomal cytochrome P450 isozymes, overall conclusion. In kind it is in vitro ADME. The settings on record: human liver microsomes. Here is the method: as §15
Data set [2] can be described thus: Comparative pharmacokinetic test in mice. It is filed as in vivo, C57BL/6 male mice. Here is the method:
C57BL/6 male mice were used as test animals in the present study, and the plasma drug concentrations of the test compound WX009 and the reference compound in mice by intravenous administration or oral administration were quantified by LC/MS/MS method at different time points respectively to evaluate the pharmacokinetic characteristics of the two test drugs in mice.
A clarified solution of the test compound was injected via tail vein into C57BL/6 mice (overnight fasting, 7-10 weeks old), and the test compound was given by gavage into C57BL/6 mice (overnight fasting, 7-10 weeks old). Approximately 30 μL of blood was collected from the jugular or tail vein at 0.0833, 0.25, 0.5, 1, 2, 4, 6, 8, and 24 hours after administration, and placed in anticoagulation tubes added with EDTA-K2, then centrifuged at 4° C. for 15 minutes at 3000 g to give the plasma. Plasma drug concentration was determined by LC-MS/MS, and relevant pharmacokinetic parameters were calculated using WinNonlin™ Version 6.3 (Pharsight, Mountain View, CA) pharmacokinetic software with a non-compartmental model linear logarithmic trapezoidal method.

T5 sequence (P33261 whole entry): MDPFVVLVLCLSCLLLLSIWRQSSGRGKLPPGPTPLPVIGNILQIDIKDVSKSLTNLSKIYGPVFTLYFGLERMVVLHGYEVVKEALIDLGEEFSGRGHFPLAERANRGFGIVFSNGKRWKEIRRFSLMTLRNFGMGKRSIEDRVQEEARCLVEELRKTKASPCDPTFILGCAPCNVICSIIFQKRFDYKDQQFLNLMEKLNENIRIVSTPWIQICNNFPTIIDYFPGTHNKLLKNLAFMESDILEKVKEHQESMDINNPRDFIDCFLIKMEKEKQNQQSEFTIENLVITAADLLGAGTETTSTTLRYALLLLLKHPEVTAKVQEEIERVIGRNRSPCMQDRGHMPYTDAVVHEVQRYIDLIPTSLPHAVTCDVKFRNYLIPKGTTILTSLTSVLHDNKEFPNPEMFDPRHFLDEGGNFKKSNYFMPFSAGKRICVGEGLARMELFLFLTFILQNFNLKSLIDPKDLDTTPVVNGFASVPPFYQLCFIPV
T6 sequence (P10635 whole entry): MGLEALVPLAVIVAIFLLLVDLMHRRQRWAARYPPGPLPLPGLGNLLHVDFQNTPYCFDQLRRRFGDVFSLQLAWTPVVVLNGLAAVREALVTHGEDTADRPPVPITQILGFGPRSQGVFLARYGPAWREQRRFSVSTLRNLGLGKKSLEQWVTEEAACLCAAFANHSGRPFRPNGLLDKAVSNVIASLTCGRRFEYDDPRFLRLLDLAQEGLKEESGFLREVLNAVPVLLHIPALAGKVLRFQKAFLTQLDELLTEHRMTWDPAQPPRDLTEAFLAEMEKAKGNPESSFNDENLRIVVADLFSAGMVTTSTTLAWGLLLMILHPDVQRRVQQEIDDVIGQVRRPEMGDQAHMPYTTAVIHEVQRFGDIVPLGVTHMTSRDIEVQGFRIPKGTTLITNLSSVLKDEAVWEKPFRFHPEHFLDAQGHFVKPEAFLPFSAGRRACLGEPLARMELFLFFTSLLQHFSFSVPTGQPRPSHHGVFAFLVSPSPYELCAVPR

`CCCCOCCOc1ccc(-c2ccc3c(c2)C=C(C(=O)Nc2ccc([S+]([O-])Cc4c(CC)ccnc4C)cc2)CCCN3CC2CCOCC2)cc1` (single isomer, unassigned) [WX007]: the concentration for half-maximal inhibition (IC50) is 1.96 nM at CCR2; 5.74 nM on CCR5; greater than 50 µM on CYP1A2; greater than 50 µM at CYP2C9; greater than 50 µM at CYP2C19; greater than 50 µM on CYP2D6. Besides, the IC50 on CYP3A4 was greater than 50 µM. In addition, the “Risk of inhibition of human liver microsomal cytochrome P450 isozymes (in words)” value (“Risk of inhibition … (in words)” below) in data set [1] was “no risk of inhibition”.
For the compound `CCCCOCCOc1ccc(-c2ccc3c(c2)C=C(C(=O)Nc2ccc([S+]([O-])Cc4cnc(C)cc4CC)cc2)CCCN3CC2CCOCC2)cc1` (single isomer, unassigned) [WX012], the 50% inhibitory concentration (IC50) is 1.5 nM at CCR2; 8.4 nM at CCR5; greater than 50 µM against CYP1A2; 22.6 µM at CYP2C9; 10.1 µM at CYP2C19; greater than 50 µM at CYP2D6. Moreover, the half-inhibitory concentration (IC50) against CYP3A4 was greater than 50 µM. Further, the “Risk of inhibition … (in words)” value in data set [1] was “no risk of inhibition”.
For `CCCCOCCOc1ccc(-c2ccc3c(c2)C=C(C(=O)Nc2ccc([S+]([O-])Cc4c(CC)ccnc4C)cc2)CCCN3CC2CCCO2)cc1` (single isomer, unassigned) [WX009], the concentration for half-maximal inhibition (IC50) is 1.84 nM on CCR2; 4.64 nM at CCR5; greater than 50 µM on CYP1A2; greater than 50 µM against CYP2C9; greater than 50 µM against CYP2C19; greater than 50 µM against CYP2D6. At CYP3A4, this compound returned a half-maximal inhibitory concentration (IC50) of 4.6 µM. Besides, the “Risk of inhibition … (in words)” value in [1] was “no risk of inhibition”. This compound also had a half-life in [2] (male, C57BL/6, mouse, plasma, mice, intravenous injection 2 mg/kg) of 264 min. The clearance in data set [2] (male, C57BL/6, mouse, plasma, mice, intravenous injection 2 mg/kg, read-out: Plasma clearance rate) came out at 0.46 mL/min/kg. For the same compound, the bioavailability in [2] (male, C57BL/6, mouse, plasma, mice, oral 10 mg/kg) was determined as 8%. The “Plasma clearance rate compared with the reference compound (in words)” value in data set [2] (mice, intravenous) is reported as “slower”. Moreover, in data set [2] (mice, oral), the “Oral plasma systemic exposure (AUC0-inf) relative to the reference compound” value was “approximately six times higher”. In data set [2] (mice, oral 10 mg/kg), the “Area under the time-concentration curve (0-inf)” value is 37.356 µM·h. This compound showed a Peak concentration in [2] (mice, oral 10 mg/kg) of 5.076 µM. In data set [2] (mice, oral 10 mg/kg), the Peak time was 2.0 h. The “Pharmacokinetics compared with the reference compound (in words)” value in data set [2] (rodent mice) is “significantly better”.
